Measured values: US20240409585A1, “MACROCYCLIC IMMUNOMODULATORS” (priority 2021, published 2024)
Bridge positions count the residues as written; N and C are the ends. Square brackets hold non-standard residues; d marks the D form. Peptide text beside a SMILES is read from it. Phe(4-NO2) = N[C@@H](Cc1ccc([N+](=O)[O-])cc1)C(=O)O; Phe(3,4-Cl2) = N[C@@H](Cc1ccc(Cl)c(Cl)c1)C(=O)O; Phe(3,4-F2) = N[C@@H](Cc1ccc(F)c(F)c1)C(=O)O; Bip = N[C@@H](Cc1ccc(-c2ccccc2)cc1)C(=O)O; Phe(3-CN) = N#Cc1cccc(C[C@H](N)C(=O)O)c1; Phe(3-Cl) = N[C@@H](Cc1cccc(Cl)c1)C(=O)O; Phe(3-OMe) = COc1cccc(C[C@H](N)C(=O)O)c1; Phe(2-Cl) = N[C@@H](Cc1ccccc1Cl)C(=O)O; Phe(3-Me) = Cc1cccc(C[C@H](N)C(=O)O)c1; 1Nal = N[C@@H](Cc1cccc2ccccc12)C(=O)O; Phe(2-Me) = Cc1ccccc1C[C@H](N)C(=O)O; Cit = NC(=O)NCCC[C@H](N)C(=O)O; NMeA = CN[C@@H](C)C(=O)O; Dab = NCC[C@H](N)C(=O)O

The compounds below were run against T1, PE-labeled human PD-L1-Ig binding to Jurkat cell line over-expressing human PD-1 (Jurkat-PD-1) (Homo sapiens, UniProt Q15116) (assay: Jurkat-PD-1 Cell Binding High-Content Screening Assay (CBA): Method 1). Settings: Jurkat-hPD-1 cells, PE-labeled PD-L1-Ig 20 nM final; read-out: Jurkat HPDL1 PD1 IC50 (uM) (Method 1).
T1 construct: expressed in transfected cells; host or cells: Jurkat
T1 sequence (Q15116 25-288): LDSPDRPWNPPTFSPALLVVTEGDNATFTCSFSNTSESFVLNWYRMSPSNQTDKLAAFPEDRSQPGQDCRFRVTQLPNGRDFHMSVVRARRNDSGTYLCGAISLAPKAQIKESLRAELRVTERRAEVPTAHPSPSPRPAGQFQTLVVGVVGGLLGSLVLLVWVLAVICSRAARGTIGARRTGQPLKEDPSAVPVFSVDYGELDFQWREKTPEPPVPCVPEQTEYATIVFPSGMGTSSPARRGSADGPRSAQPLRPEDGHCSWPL

| SMILES | IC50 [µM] |
| --- | --- |
| CC(C)C[C@@H]1NC(=O)[C@H](CCN)NC(=O)[C@@H](CC(C)C)NC(=O)[C@H](C)N(C)C(=O)[C@H](CCCNC(=N)N)NC(=O)[C@H](Cc2ccc(-c3ccccc3)cc2)NC(=O)[C@H](C(C)C)NC(=O)[C@H](Cc2c[nH]c3ccccc23)NC(=O)[C@H](CC(=O)O)NC(=O)[C@H](Cc2ccc(O)cc2)NC(=O)[C@H](CC(N)=O)NC(=O)CSC[C@@H](C(=O)N[C@H](C)C(N)=O)NC(=O)[C@H]([C@@H](C)O)NC(=O)[C@H](C(C)C)NC1=O [Compound 1183] ({CH2CO}-NYDWV[Bip]R[NMeA][dL][Dab]LVTC[dA]-NH2; thioether N-14) | 0.15 |
| CC(C)C[C@@H]1NC(=O)[C@H](CCCCN)NC(=O)[C@@H](CC(C)C)NC(=O)[C@H](C)N(C)C(=O)[C@H](CCCNC(=N)N)NC(=O)[C@H](Cc2ccc(-c3ccccc3)cc2)NC(=O)[C@H](C(C)C)NC(=O)[C@H](Cc2c[nH]c3ccccc23)NC(=O)[C@H](CC(=O)O)NC(=O)[C@H](Cc2ccc(O)cc2)NC(=O)[C@H](Cc2ccccc2)NC(=O)CSC[C@@H](C(=O)N[C@@H](CO)C(N)=O)NC(=O)[C@H]([C@@H](C)O)NC(=O)[C@H](C(C)C)NC1=O [Compound 1184] ({CH2CO}-FYDWV[Bip]R[NMeA][dL]KLVTCS-NH2; thioether N-14) | 0.13 |
| CC(C)C[C@@H]1NC(=O)[C@H](CCCNC(=N)N)NC(=O)[C@H](Cc2cccc3ccccc23)NC(=O)[C@H](C)N(C)C(=O)[C@H](CCCNC(=N)N)NC(=O)[C@H](Cc2ccc(-c3ccccc3)cc2)NC(=O)[C@H](C(C)C)NC(=O)[C@H](Cc2c[nH]c3ccccc23)NC(=O)[C@H](CC(=O)O)NC(=O)[C@H](Cc2ccc(O)cc2)NC(=O)[C@H](CC(N)=O)NC(=O)CSC[C@@H](C(=O)N[C@@H](C)C(N)=O)NC(=O)[C@H]([C@@H](C)O)NC(=O)[C@H](C(C)C)NC1=O [Compound 1185] ({CH2CO}-NYDWV[Bip]R[NMeA][1Nal]RLVTCA-NH2; thioether N-14) | 0.35 |
| CC(C)C[C@@H]1NC(=O)[C@H](CCN)NC(=O)[C@@H](CC(C)C)NC(=O)[C@H](C)N(C)C(=O)[C@H](CCCNC(=N)N)NC(=O)[C@H](Cc2ccc(-c3ccccc3)cc2)NC(=O)[C@H](C(C)C)NC(=O)[C@H](Cc2c[nH]c3ccccc23)NC(=O)[C@H](CC(N)=O)NC(=O)[C@H](Cc2ccc(O)cc2)NC(=O)[C@H](CC(N)=O)NC(=O)CSC[C@@H](C(=O)N[C@@H](C)C(N)=O)NC(=O)[C@H]([C@@H](C)O)NC(=O)[C@H](C(C)C)NC1=O [Compound 1186] ({CH2CO}-NYNWV[Bip]R[NMeA][dL][Dab]LVTCA-NH2; thioether N-14) | 0.93 |
| CC(C)C[C@@H]1NC(=O)[C@H](CCN)NC(=O)[C@@H](CC(C)C)NC(=O)[C@H](C)N(C)C(=O)[C@H](CCCNC(=N)N)NC(=O)[C@H](Cc2ccc(-c3ccccc3)cc2)NC(=O)[C@H](C(C)C)NC(=O)[C@H](Cc2c[nH]c3ccccc23)NC(=O)[C@H](CC(=O)O)NC(=O)[C@H](Cc2ccc(O)cc2)NC(=O)[C@H](Cc2ccc([N+](=O)[O-])cc2)NC(=O)CSC[C@@H](C(=O)N[C@@H](C)C(N)=O)NC(=O)[C@H]([C@@H](C)O)NC(=O)[C@H](C(C)C)NC1=O [Compound 1187] ({CH2CO}-[Phe(4-NO2)]YDWV[Bip]R[NMeA][dL][Dab]LVTCA-NH2; thioether N-14) | 0.05 |
| CC(C)C[C@@H]1NC(=O)[C@H](CCN)NC(=O)[C@@H](CC(C)C)NC(=O)[C@H](C)N(C)C(=O)[C@H](CCCNC(=N)N)NC(=O)[C@H](Cc2ccc(-c3ccccc3)cc2)NC(=O)[C@H](C(C)C)NC(=O)[C@H](Cc2c[nH]c3ccccc23)NC(=O)[C@H](CC(=O)O)NC(=O)[C@H](Cc2ccc([N+](=O)[O-])cc2)NC(=O)[C@H](CC(N)=O)NC(=O)CSC[C@@H](C(=O)N[C@@H](C)C(N)=O)NC(=O)[C@H]([C@@H](C)O)NC(=O)[C@H](C(C)C)NC1=O [Compound 1188] ({CH2CO}-N[Phe(4-NO2)]DWV[Bip]R[NMeA][dL][Dab]LVTCA-NH2; thioether N-14) | 0.09 |
| CC(C)C[C@@H]1NC(=O)[C@H](CCN)NC(=O)[C@@H](CC(C)C)NC(=O)[C@H](C)N(C)C(=O)[C@H](CCCNC(=N)N)NC(=O)[C@H](Cc2ccc(-c3ccccc3)cc2)NC(=O)[C@H](C(C)C)NC(=O)[C@H](Cc2c[nH]c3ccccc23)NC(=O)[C@H](CC(=O)O)NC(=O)[C@H](Cc2ccc(O)cc2)NC(=O)[C@H](CC(N)=O)NC(=O)CSC[C@@H](C(=O)N[C@@H](C)C(N)=O)NC(=O)[C@H]([C@@H](C)O)NC(=O)[C@H](C(C)C)NC1=O [Compound 1189] ({CH2CO}-NYDWV[Bip]R[NMeA][dL][Dab]LVTCA-NH2; thioether N-14) | 0.03 |
| CC(C)C[C@@H]1NC(=O)[C@H](CCN)NC(=O)[C@@H](CC(C)C)NC(=O)[C@H](C)N(C)C(=O)[C@H](CCCNC(N)=O)NC(=O)[C@H](Cc2ccc(-c3ccccc3)cc2)NC(=O)[C@H](C(C)C)NC(=O)[C@H](Cc2cccc(Cl)c2)NC(=O)[C@H](CC(=O)O)NC(=O)[C@H](Cc2ccc(O)cc2)NC(=O)[C@H](CC(N)=O)NC(=O)CSC[C@@H](C(=O)N[C@@H](C)C(N)=O)NC(=O)[C@H]([C@@H](C)O)NC(=O)[C@H](C(C)C)NC1=O [Compound 1190] ({CH2CO}-NYD[Phe(3-Cl)]V[Bip][Cit][NMeA][dL][Dab]LVTCA-NH2; thioether N-14) | 0.02 |
| COc1cccc(C[C@@H]2NC(=O)[C@H](CC(=O)O)NC(=O)[C@H](Cc3ccc(O)cc3)NC(=O)[C@H](CC(N)=O)NC(=O)CSC[C@@H](C(=O)N[C@@H](C)C(N)=O)NC(=O)[C@H]([C@@H](C)O)NC(=O)[C@H](C(C)C)NC(=O)[C@H](CC(C)C)NC(=O)[C@H](CCCNC(N)=O)NC(=O)[C@@H](CC(C)C)NC(=O)[C@H](C)N(C)C(=O)[C@H](CCCNC(=N)N)NC(=O)[C@H](Cc3ccc(-c4ccccc4)cc3)NC(=O)[C@H](C(C)C)NC2=O)c1 [Compound 1191] ({CH2CO}-NYD[Phe(3-OMe)]V[Bip]R[NMeA][dL][Cit]LVTCA-NH2; thioether N-14) | 0.07 |
| Cc1cccc(C[C@@H]2NC(=O)[C@H](CC(=O)O)NC(=O)[C@H](Cc3ccc(O)cc3)NC(=O)[C@H](CC(N)=O)NC(=O)CSC[C@@H](C(=O)N[C@@H](C)C(N)=O)NC(=O)[C@H]([C@@H](C)O)NC(=O)[C@H](C(C)C)NC(=O)[C@H](CC(C)C)NC(=O)[C@H](CCCNC(=N)N)NC(=O)[C@@H](CC(C)C)NC(=O)[C@H](C)N(C)C(=O)[C@H](CCCNC(=N)N)NC(=O)[C@H](Cc3ccc(-c4ccccc4)cc3)NC(=O)[C@H](C(C)C)NC2=O)c1 [Compound 1192] ({CH2CO}-NYD[Phe(3-Me)]V[Bip]R[NMeA][dL]RLVTCA-NH2; thioether N-14) | 0.03 |

Further lines, results first:

| IC50 [µM] | SMILES |
| --- | --- |
| 0.35 | CC(C)C[C@@H]1NC(=O)[C@H](CCCNC(=N)N)NC(=O)[C@@H](CC(C)C)NC(=O)[C@H](C)N(C)C(=O)[C@H](CCCNC(=N)N)NC(=O)[C@H](Cc2ccc(-c3ccccc3)cc2)NC(=O)[C@H](C(C)C)NC(=O)[C@H](Cc2ccccc2Cl)NC(=O)[C@H](CC(=O)O)NC(=O)[C@H](Cc2ccc(O)cc2)NC(=O)[C@H](CC(N)=O)NC(=O)CSC[C@@H](C(=O)N[C@@H](C)C(N)=O)NC(=O)[C@H]([C@@H](C)O)NC(=O)[C@H](C(C)C)NC1=O [Compound 1193] ({CH2CO}-NYD[Phe(2-Cl)]V[Bip]R[NMeA][dL]RLVTCA-NH2; thioether N-14) |
| 0.69 | CC(C)C[C@@H]1NC(=O)[C@H](CCCNC(=N)N)NC(=O)[C@@H](CC(C)C)NC(=O)[C@H](C)N(C)C(=O)[C@H](CCCNC(=N)N)NC(=O)[C@H](Cc2ccc(-c3ccccc3)cc2)NC(=O)[C@H](C(C)C)NC(=O)[C@H](Cc2ccc(F)c(F)c2)NC(=O)[C@H](CC(=O)O)NC(=O)[C@H](Cc2ccc(O)cc2)NC(=O)[C@H](CC(N)=O)NC(=O)CSC[C@@H](C(=O)N[C@@H](C)C(N)=O)NC(=O)[C@H]([C@@H](C)O)NC(=O)[C@H](C(C)C)NC1=O [Compound 1194] ({CH2CO}-NYD[Phe(3,4-F2)]V[Bip]R[NMeA][dL]RLVTCA-NH2; thioether N-14) |
| 0.32 | CC(C)C[C@@H]1NC(=O)[C@H](CCCNC(=N)N)NC(=O)[C@@H](CC(C)C)NC(=O)[C@H](C)N(C)C(=O)[C@H](CCCNC(=N)N)NC(=O)[C@H](Cc2ccc(-c3ccccc3)cc2)NC(=O)[C@H](C(C)C)NC(=O)[C@H](Cc2ccc(Cl)c(Cl)c2)NC(=O)[C@H](CC(=O)O)NC(=O)[C@H](Cc2ccc(O)cc2)NC(=O)[C@H](CC(N)=O)NC(=O)CSC[C@@H](C(=O)N[C@@H](C)C(N)=O)NC(=O)[C@H]([C@@H](C)O)NC(=O)[C@H](C(C)C)NC1=O [Compound 1195] ({CH2CO}-NYD[Phe(3,4-Cl2)]V[Bip]R[NMeA][dL]RLVTCA-NH2; thioether N-14) |
| 0.24 | CC(C)C[C@@H]1NC(=O)[C@H](CCCNC(=N)N)NC(=O)[C@@H](CC(C)C)NC(=O)[C@H](C)N(C)C(=O)[C@H](CCCNC(=N)N)NC(=O)[C@H](Cc2ccc(-c3ccccc3)cc2)NC(=O)[C@H](C(C)C)NC(=O)[C@H](Cc2cccc(C#N)c2)NC(=O)[C@H](CC(=O)O)NC(=O)[C@H](Cc2ccc(O)cc2)NC(=O)[C@H](CC(N)=O)NC(=O)CSC[C@@H](C(=O)N[C@@H](C)C(N)=O)NC(=O)[C@H]([C@@H](C)O)NC(=O)[C@H](C(C)C)NC1=O [Compound 1196] ({CH2CO}-NYD[Phe(3-CN)]V[Bip]R[NMeA][dL]RLVTCA-NH2; thioether N-14) |
| 0.36 | Cc1ccccc1C[C@@H]1NC(=O)[C@H](CC(=O)O)NC(=O)[C@H](Cc2ccc(O)cc2)NC(=O)[C@H](CC(N)=O)NC(=O)CSC[C@@H](C(=O)N[C@@H](C)C(N)=O)NC(=O)[C@H]([C@@H](C)O)NC(=O)[C@H](C(C)C)NC(=O)[C@H](CC(C)C)NC(=O)[C@H](CCCNC(=N)N)NC(=O)[C@@H](CC(C)C)NC(=O)[C@H](C)N(C)C(=O)[C@H](CCCNC(=N)N)NC(=O)[C@H](Cc2ccc(-c3ccccc3)cc2)NC(=O)[C@H](C(C)C)NC1=O [Compound 1197] ({CH2CO}-NYD[Phe(2-Me)]V[Bip]R[NMeA][dL]RLVTCA-NH2; thioether N-14) |
